The test system of data set [1] is hepatocellular carcinoma and moderate hepatic dysfunction. The arrangement: method as in PMID 33430312. To be noted: cited from earlier work.
For data set [2], the system named is PC3 prostate cancer cell line. Description: Sulforhodamine B (SRB) cell growth inhibition assay. The settings on record: for GI50 / IC100 / CC50: Homo sapiens, 48 h; for IC100: read-out: TGI (μM); for TGI: PC3, 48 h, concentration to inhibit 100% of cell growth, mean ± SD; for CC50: read-out: LC50 (μM).
Data set [3] has as its system human prostate (PC3), colon (Caco-2) and hepatocyte (Hep G2) carcinomas. The arrangement: method as in PMID 29763615. To be noted: all three tumor cell lines PC3, Caco-2, Hep G2; cited from earlier work.
Data set [4] has as its target T1, human A3AR (Homo sapiens, UniProt P0DMS8).
T1 sequence (P0DMS8 1-318): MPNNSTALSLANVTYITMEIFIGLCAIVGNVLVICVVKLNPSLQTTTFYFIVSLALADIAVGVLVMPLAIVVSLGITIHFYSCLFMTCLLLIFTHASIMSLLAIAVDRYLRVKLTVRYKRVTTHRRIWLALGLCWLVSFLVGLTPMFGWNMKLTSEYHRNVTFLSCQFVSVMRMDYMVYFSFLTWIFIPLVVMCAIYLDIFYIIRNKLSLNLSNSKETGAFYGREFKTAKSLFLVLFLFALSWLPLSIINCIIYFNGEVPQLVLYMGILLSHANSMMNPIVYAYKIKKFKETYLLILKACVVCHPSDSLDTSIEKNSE
Description: GloSensor cAMP accumulation assay (agonism/antagonism) at A3AR in CHO cells. The class given is cell-based. The arrangement: expressed in transfected cells; host or cells: CHO cells stably expressing A3AR and the GloSensor biosensor plasmid. The settings on record: for IC50: antagonism: counteracting agonist (NECA 1 μM) induced decrease of cAMP, forskolin 10 μM, mean ± S.E.; for functional behaviour at A3AR (agonist/antagonist): forskolin 10 µM stimulated cAMP, compared to Cl-IB-MECA. As for the experimental part:
CHO cells stable expressing A2B or A3ARs and the plasmid encoding the biosensor were used to study functional agonism and antagonism of understudy ligands. The desired cell number was incubated in equilibration medium containing a 3% v/v GloSensor cAMP reagent stock solution, 10% FBS and 87% of CO2 independent media. After 2 h of incubation, cells were dispensed in wells of 384 well plate and when a steady-state basal signal was obtained the agonism profile was studied, adding to wells the reference agonist NECA or compounds at different concentrations. In the case of the Gi coupled receptor A3AR Forskolin (FSK) 10 μM was added 10 min after the agonists and various luminescence readings were performed at different incubation times.
The antagonist profile of the compounds was evaluated by assessing their ability to counteract an agonist-induced increase or decrease (A2B and A3ARs, respectively) of cAMP accumulation. The cells were incubated with different antagonist concentrations and then treated with a fixed dose of NECA (10 μM for A2BAR and 1 μM for A3AR). FSK 10 μM was added 10 min after the agonists and various luminescence reads were performed at different incubation times.
Responses were expressed as percentage of the maximal relative luminescence units (RLU) and concentration–response curves were fitted by a nonlinear regression with the Prism program (GraphPAD Software, San Diego, CA, USA). The agonist or antagonist profile of compounds was expressed as EC50 or IC50, respectively. Each concentration was tested three–five times in duplicate and the values are given as the mean ± S.E.
In general terms: cAMP levels reflect the balance of adenylyl cyclase and phosphodiesterase activity.

The target of data set [5] is T1, human A3AR. Briefly: Radioligand binding assay, displacement of [3H]HEMADO in CHO cell membranes. To be noted: for A1/A3: A3AR selectivity vs A1AR; for A1/A3 / A2A/A3: ratio of Ki values; for A2A/A3: A3AR selectivity vs A2AAR; for Ki: [3H]HEMADO, CHO membranes, mean ± S.E., n = 3-5, read-out: hA3R (Ki nM). How it is done: In the case of A2BAR, the potency of selected compounds was determined through a functional GloSensor cAMP assay.
(§1) All pharmacological methods followed the procedures as described earlier. In brief, membranes for radioligand binding were prepared from CHO cells stably transfected with human adenosine receptor subtypes through two centrifugations at different speeds. The first low-speed (1000 g) centrifugation allowed the removing of cell fragments and nuclei, while the second, performed at high speed (100,000 g), allowed the precipitation of the crude membrane fractions.
(§2) The binding affinity of the novel compounds was evaluated using radioligand competition experiments in CHO cells stably expressing hA1AR, hA2AAR, and hA3AR subtypes. […] Results were expressed as Ki values (dissociation constants), which were calculated with the program GraphPad (GraphPAD Software, San Diego, CA, USA). Each concentration was tested three–five times in duplicate and the values are given as the mean ± standard error (S.E.).

In data set [6] the target is human recombinant A2AAR (Homo sapiens, UniProt P29274). Briefly: Radioligand binding assay, displacement of [3H]NECA in CHO cell membranes. The settings on record: mean ± S.E., n = 3-5, read-out: hA2AR (Ki nM). How it is done:
(§3) [^3H]CCPA (2-chloro-N^6-cyclopentylAdo), [^3H]NECA (5′-N-ethylcarboxamidoAdo), and [^3H]HEMADO (2-hexynyl-N^6-methylAdo) were used as respective radioligands. The results are reported as Ki values in nM (± standard errors) (Table 1). In the case of A2BAR, the potency of selected compounds was determined through a functional GloSensor cAMP assay.
as §1, §2
On the technique in general: In a radioligand displacement assay an active substance lowers the binding of a labelled ligand.

The target of data set [7] is T2, human recombinant A1AR (Homo sapiens, UniProt P30542).
T2 sequence (P30542 1-326): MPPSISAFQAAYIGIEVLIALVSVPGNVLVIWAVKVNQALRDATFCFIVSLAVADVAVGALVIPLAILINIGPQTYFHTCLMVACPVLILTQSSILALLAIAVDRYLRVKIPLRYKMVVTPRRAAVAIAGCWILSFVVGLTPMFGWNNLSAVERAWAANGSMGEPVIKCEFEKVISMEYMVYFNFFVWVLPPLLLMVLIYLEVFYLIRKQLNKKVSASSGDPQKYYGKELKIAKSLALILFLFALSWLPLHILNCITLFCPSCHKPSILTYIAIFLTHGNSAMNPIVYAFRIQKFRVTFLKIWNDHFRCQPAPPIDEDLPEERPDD
Briefly: Radioligand binding assay, displacement of [3H]CCPA in CHO cell membranes. To be noted: mean ± S.E., n = 3-5, read-out: hA1R (Ki nM). As for the experimental part: as §3, §1, §2

SMILES strings stand for the structures. Entries after “also recorded” stand apart in the source; their conditions may differ.

Usually GI50 stands for the concentration that inhibits growth by half. The low end stands for greater sensitivity of the cells, the high end for lower sensitivity of the cells. What is called TGI is the concentration at which net growth stops. As a reminder, the IC50 is the midpoint of a concentration-inhibition curve. High values mean weaker potency in that assay, low ones greater potency in that assay. As a reminder, the Ki is a measure of affinity in units of concentration, obtained from inhibition or displacement. By EC50 is commonly meant the concentration needed to bring the measured effect to its halfway point. A lower EC50 goes with an effect from little substance.

Chain of human recombinant A2AAR (P29274 whole entry): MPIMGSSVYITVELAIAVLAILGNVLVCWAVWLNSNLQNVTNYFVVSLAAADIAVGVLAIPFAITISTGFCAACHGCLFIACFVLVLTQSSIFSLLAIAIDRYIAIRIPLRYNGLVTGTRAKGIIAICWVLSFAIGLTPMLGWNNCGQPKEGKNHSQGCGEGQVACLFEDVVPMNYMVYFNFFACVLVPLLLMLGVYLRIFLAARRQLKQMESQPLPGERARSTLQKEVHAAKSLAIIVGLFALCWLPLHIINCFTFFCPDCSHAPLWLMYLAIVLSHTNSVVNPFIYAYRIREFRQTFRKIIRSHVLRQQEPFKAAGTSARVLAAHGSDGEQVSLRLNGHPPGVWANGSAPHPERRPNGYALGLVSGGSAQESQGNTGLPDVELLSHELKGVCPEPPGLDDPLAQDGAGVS

`CNC(=O)[C@H]1O[C@@H](n2cnc3c(NCc4cccc(I)c4)nc(Cl)nc32)[C@H](O)[C@@H]1O` [Cl-IB-MECA, 2-chloro-N^6-(3-iodobenzyl)adenosine-5′-N-methyluronamide, reference compound]: in data set [1], the “primary end-point of phase II trial” value is on record as “did not meet its primary end-point” and the “safety profile in phase II trial” value is reported as “favorable safety profile”. In data set [2], the GI50 amounted to 18000 ± 400 nM, the IC100 is 44 µM and the “TGI” value was determined as 44000 ± 3300 nM. For the same molecule, in data set [3], the “anticancer effect (cell growth inhibition)” value is recorded as “good anticancer effect”.
As to `CCCCC#Cc1nc(NCCc2ccccc2)c2ncn([C@@H]3O[C@H](CO)[C@@H](O)[C@H]3O)c2n1` [Compound 10, 2-Hexynyl-N^6-(2-phenylethyl)adenosine], in data set [4], the 50% inhibitory concentration (IC50) came out at 31 ± 6 nM and the “functional behaviour at A3AR (agonist/antagonist)” value is recorded as “antagonists”. In data set [5], the A1/A3 amounted to 86 fold, the A2A/A3 came to 97 fold and the inhibitory constant (Ki) came to 1.5 ± 0.3 nM. In data set [2], the concentration for 50% growth inhibition (GI50) is 13000 ± 1600 nM, the CC50 amounted to 452 ± 10.5 µM, the IC100 was 77 µM and the total growth inhibition concentration (TGI) came out at 77000 ± 2900 nM. Besides, the Ki in data set [6] came to 146 ± 48 nM. The Ki in data set [7] came to 129 ± 8.2 nM.
In the case of `OC[C@H]1O[C@@H](n2cnc3c(NCC(c4ccccc4)c4ccccc4)nc(I)nc32)[C@H](O)[C@@H]1O` [Compound 9, 2-Iodo-N^6-(2,2-diphenylethyl)adenosine], in data set [5], the A1/A3 was 17 fold, the A2A/A3 turned out to be 113 fold and the inhibitory constant (Ki) stood at 11 ± 1.8 nM. For the same molecule, in data set [2], it took 24000 ± 1200 nM to inhibit growth by half (GI50), the CC50 amounted to 94 ± 3.5 µM, the IC100 stood at 48 µM and the concentration for total growth inhibition (TGI) is 48000 ± 3500 nM. The Ki in data set [6] came out at 1240 ± 253 nM. Besides, the inhibitory constant (Ki) in data set [7] came to 182 ± 25.4 nM.
For `OC[C@H]1O[C@@H](n2cnc3c(NCCc4ccccc4)nc(Cl)nc32)[C@H](O)[C@@H]1O` [Compound 15, 2-Chloro-N^6-(2-phenylethyl)adenosine], in data set [4], it took 14 ± 3.4 nM to reach a half-maximal effect (EC50) and the “functional behaviour at A3AR (agonist/antagonist)” value is on record as “full A3AR agonist; also recorded: A3AR full agonists”. Further, in data set [5], the A1/A3 is 68 fold, the A2A/A3 is given as 27,500 fold and the inhibition constant (Ki) was determined as 0.024 ± 0.005 nM. Besides, in data set [2], the GI50 was found to be 51000 ± 5200 nM, the CC50 is greater than 500 µM, the IC100 worked out at 262 µM and the “TGI” value stood at 262000 ± 8300 nM. For the same molecule, in data set [2] (PC3, at concentrations up to 500 µM), the cytotoxic activity result was “no cytotoxic activity”. In data set [6], the inhibition constant Ki worked out at 660 ± 129 nM. Further, the Ki in data set [7] was 1.64 ± 0.37 nM.
In the case of `OC[C@H]1O[C@@H](n2cnc3c(NCCc4ccccc4)nc(C#Cc4ccccc4)nc32)[C@H](O)[C@@H]1O` [Compound 11, 2-Phenylethynyl-N^6-(2-phenethyl)adenosine], in data set [4], the 50% inhibitory concentration (IC50) came out at 79 ± 15 nM and the “functional behaviour at A3AR (agonist/antagonist)” value was “antagonists”. For the same molecule, in data set [5], the A1/A3 was 213 fold, the A2A/A3 is 785 fold and the inhibition constant Ki is 3.8 ± 0.6 nM. For the same molecule, in data set [2], growth was halved (GI50) at 2500 ± 800 nM, the CC50 stood at 151 ± 8.9 µM, the IC100 is 19 µM and the total growth inhibition concentration (TGI) was 19000 ± 6100 nM. Besides, in data set [6], the inhibition constant (Ki) worked out at 2980 ± 271 nM. Further, the Ki in data set [7] was 809 ± 117 nM.
Regarding `OC[C@H]1O[C@@H](n2cnc3c(NCC(c4ccccc4)c4ccccc4)nc(Cl)nc32)[C@H](O)[C@@H]1O` [Compound 16, 2-Chloro-N^6-(2,2-diphenylethyl)-adenosine], in data set [5], the A1/A3 is reported as 6 fold, the A2A/A3 was 2046 fold and the Ki came to 0.13 ± 0.01 nM. In data set [2], the GI50 was 35000 ± 3100 nM, the CC50 is 253 ± 11.5 µM, the IC100 was found to be 94 µM and the “TGI” value is 94000 ± 4100 nM. The Ki in data set [6] was 266 ± 35 nM. The Ki in data set [7] was found to be 0.76 ± 0.2 nM.
Consider `OC[C@H]1O[C@@H](n2cnc3c(NCC(c4ccccc4)c4ccccc4)nc(C#Cc4ccccc4)nc32)[C@H](O)[C@@H]1O` [Compound 12, N^6-(2,2-Diphenylethyl)-2-phenylethynyladenosine], for which, in data set [4], the concentration for half-maximal inhibition (IC50) was found to be 153 ± 12 nM and the “functional behaviour at A3AR (agonist/antagonist)” value is on record as “antagonists”. In data set [5], the A1/A3 worked out at 2 fold, the A2A/A3 is 4 fold and the Ki came out at 106 ± 25 nM. In addition, in data set [2], halving of growth (GI50) required 14000 ± 900 nM, the CC50 was 59 ± 10.1 µM, the IC100 is 29 µM and the “TGI” value was 29000 ± 4900 nM. Moreover, the Ki in data set [6] is 450 ± 84 nM. Besides, in data set [7], the inhibition constant (Ki) stood at 211 ± 53 nM.
With `OC[C@H]1O[C@@H](n2cnc3c(NCCc4ccccc4)nc(I)nc32)[C@H](O)[C@@H]1O` [Compound 8, 2-Iodo-N^6-(2-phenylethyl)adenosine], in data set [5], the A1/A3 was 29 fold, the A2A/A3 is given as 824 fold and the Ki amounted to 5 ± 1.2 nM. In data set [2], the GI50 was determined as 42000 ± 2700 nM, the CC50 is 301 ± 13.4 µM, the IC100 is 113 µM and the “TGI” value was found to be 113000 ± 6700 nM. Also, the Ki in data set [6] amounted to 4120 ± 998 nM. Moreover, in data set [7], the inhibitory constant (Ki) is 144 ± 32 nM.
Regarding `OC[C@H]1O[C@@H](n2cnc3c(NCCc4ccccc4)nc(SCCc4ccccc4)nc32)[C@H](O)[C@@H]1O` [Compound 13, N^6-(2-Phenylethyl)-2-phenylethylthioadenosine], in data set [5], the A1/A3 is 9 fold, the A2A/A3 turned out to be 112 fold and the Ki stood at 30 ± 7.1 nM. In data set [2], growth was halved (GI50) at 41000 ± 4200 nM, the CC50 is greater than 500 µM, the IC100 was greater than 500 µM and the “TGI” value is greater than 500000 nM. The Ki in data set [6] is 3360 ± 752 nM. Further, the inhibition constant Ki in data set [7] was 263 ± 19 nM.

(Values after publication PMC8879107, “A3 Adenosine Receptor Antagonists with Nucleoside Structures and Their Anticancer Activity” (Pharmaceuticals, 2022).)
